Our source for the EC50 values is patent US12281119B2, “Imidazo[2,1-f][1,2,4]triazin-4-amine derivatives as TLR7 agonist” (BEIGENE, LTD., priority 2019, dated 2025).

Common to all, as to type: cell-based
In experiment [1] the target is T1, human TLR7 (Homo sapiens, UniProt Q9NYK1).
T1 sequence (Q9NYK1 27-1049): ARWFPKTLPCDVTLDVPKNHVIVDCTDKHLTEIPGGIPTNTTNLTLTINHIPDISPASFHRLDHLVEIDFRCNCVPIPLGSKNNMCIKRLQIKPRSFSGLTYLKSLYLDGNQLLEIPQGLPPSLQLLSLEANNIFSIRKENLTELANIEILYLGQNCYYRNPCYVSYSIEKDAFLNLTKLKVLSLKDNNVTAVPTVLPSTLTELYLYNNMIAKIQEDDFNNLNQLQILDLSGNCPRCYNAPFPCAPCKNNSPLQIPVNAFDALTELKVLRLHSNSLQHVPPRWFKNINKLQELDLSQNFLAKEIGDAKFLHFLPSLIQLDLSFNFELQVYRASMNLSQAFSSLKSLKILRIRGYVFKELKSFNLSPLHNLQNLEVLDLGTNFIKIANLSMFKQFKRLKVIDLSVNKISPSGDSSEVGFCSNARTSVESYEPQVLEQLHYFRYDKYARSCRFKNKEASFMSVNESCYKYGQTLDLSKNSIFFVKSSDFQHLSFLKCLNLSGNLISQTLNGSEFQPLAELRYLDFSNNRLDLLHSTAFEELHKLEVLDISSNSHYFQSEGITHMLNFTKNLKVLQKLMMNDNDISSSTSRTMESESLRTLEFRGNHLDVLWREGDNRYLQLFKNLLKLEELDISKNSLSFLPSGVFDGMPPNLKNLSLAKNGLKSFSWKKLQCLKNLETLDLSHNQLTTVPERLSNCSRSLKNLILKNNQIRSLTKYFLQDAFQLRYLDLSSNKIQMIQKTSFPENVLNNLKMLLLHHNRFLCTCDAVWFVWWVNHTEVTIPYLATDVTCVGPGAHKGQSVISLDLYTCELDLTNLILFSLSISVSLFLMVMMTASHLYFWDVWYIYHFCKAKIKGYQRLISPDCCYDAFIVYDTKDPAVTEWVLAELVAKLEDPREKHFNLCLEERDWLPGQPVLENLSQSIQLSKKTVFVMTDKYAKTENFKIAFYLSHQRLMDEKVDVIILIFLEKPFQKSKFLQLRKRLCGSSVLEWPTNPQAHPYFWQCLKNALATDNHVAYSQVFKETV
The experiment can be described thus: TLR7 stimulation determined using HEK-Blue Detection. The arrangement: expressed in transfected cells; host or cells: HEK293 (HEK-Blue hTLR7). Conditions: HEK-Blue hTLR7 cells, HEK-Blue Detection (A77-A124), 16 hr, relative to Resiquimod maximum. An excerpt: TLR7 Stimulation Determined Using HEK-Blue Detection
This assay was designed for studying the stimulation of human TLR7 protein in HELK-Blue hTLR7 tool cell line by monitoring the activation of NF-κB. HEK-Blue hTLR7 cells were obtained by co-transfection of the hTLR7 gene and an optimized secreted embryonic alkaline phosphatase (SLAP) reporter gene into HEK293 cells. The SLAP reporter gene was placed under the control of the IFN-β minimal promoter fused to five NF-κB and AP-1-binding sites. Stimulation with a TLR7 ligand activates NF-κB and AP-1 which induce the expression of SLAP. Levels of SLAP can be easily determined with HEK-Blue Detection, a cell culture medium that allows for real-time detection of SLAP. HLK-Blue Detection contains all the nutrients necessary for cell growth and a specific SLAP color substrate. The hydrolysis of the substrate by SLAP produces a purple/blue color that can be measured with a spectrophotometer.
When growing to 50-80%0 confluency, HLK-Blue hTLR7 cells were plated into 96-well plate (costar 3599) at a density of 40000 cells/well. Then compounds were added with serial dilutions over 10 points with a 0.04 nM-10 μM final concentration range in 0.1% DMSO/BLK-Blue Detection. The plates were then incubated for 16 hr at 37° C. in […] and vortex for 30s before measurement. The optical density at 620-655 nm was read on BMG PHLRAstar FSX instrument. The EC50 for each compound was determined by calculating the percentages of the maximum activation identified with Resiquimod.

For a further experiment, the target named is T2, human TLR 8 protein (Homo sapiens, UniProt Q9NR97).
T2 construct: expressed in transfected cells; host or cells: HEK293 (HEK-Blue hTLR8)
T2 sequence (Q9NR97 27-1041): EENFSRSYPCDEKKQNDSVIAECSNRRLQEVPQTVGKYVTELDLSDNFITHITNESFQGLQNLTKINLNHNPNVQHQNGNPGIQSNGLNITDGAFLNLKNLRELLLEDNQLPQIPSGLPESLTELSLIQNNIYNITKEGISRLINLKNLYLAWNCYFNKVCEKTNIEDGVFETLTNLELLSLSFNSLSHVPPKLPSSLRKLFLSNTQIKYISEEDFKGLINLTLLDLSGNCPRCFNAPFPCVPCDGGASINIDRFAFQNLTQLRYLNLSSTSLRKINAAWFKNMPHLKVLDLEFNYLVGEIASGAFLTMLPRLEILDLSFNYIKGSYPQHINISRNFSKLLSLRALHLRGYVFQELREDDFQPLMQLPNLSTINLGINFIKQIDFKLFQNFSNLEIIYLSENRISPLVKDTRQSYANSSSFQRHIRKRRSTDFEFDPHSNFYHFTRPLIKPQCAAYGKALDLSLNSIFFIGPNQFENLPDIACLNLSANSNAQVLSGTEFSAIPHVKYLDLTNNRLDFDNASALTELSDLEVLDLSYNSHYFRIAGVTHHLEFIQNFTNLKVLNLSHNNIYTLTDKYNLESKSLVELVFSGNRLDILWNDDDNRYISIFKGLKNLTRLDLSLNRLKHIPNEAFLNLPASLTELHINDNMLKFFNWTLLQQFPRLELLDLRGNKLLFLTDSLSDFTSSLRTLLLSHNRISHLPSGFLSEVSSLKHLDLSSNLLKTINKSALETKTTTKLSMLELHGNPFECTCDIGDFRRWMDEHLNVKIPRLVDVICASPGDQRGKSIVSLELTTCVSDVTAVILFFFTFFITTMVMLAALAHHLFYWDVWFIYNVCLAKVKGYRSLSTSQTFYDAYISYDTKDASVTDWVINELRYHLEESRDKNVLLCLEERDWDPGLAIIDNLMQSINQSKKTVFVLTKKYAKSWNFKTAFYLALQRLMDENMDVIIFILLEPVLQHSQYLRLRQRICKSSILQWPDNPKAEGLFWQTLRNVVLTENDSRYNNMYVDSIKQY
The experiment can be described thus: TLR8 stimulation determined using HEK-Blue Detection. As to conditions: HEK-Blue hTLR8 cells, 16 hr, relative to Resiquimod or Motolimod maximum. An excerpt: TLR8 Stimulation Determined Using HEK-Blue Detection
This assay was designed for studying the stimulation of human TLR 8 protein in HEK-Blue hTLR8 tool cell line by monitoring the activation of NF-1B. HEK-Blue hTLR8 cells were obtained by co-transfection of the hTLR8 gene and an optimized secreted embryonic alkaline phosphatase (SEAP) reporter gene into HEK293 cells. The SEAP reporter gene was placed under the control of the IFN-β minimal promoter fused to five NF-κB and AP-1-binding sites. Stimulation with a TLR 8 ligand activates NF-κB and AP-1 which induce the expression of SEAP. Levels of SEAP can be easily determined with HEK-Blue Detection, a cell culture medium that allows for real-time detection of SEAP. HEK-Blue Detection contains all the nutrients necessary for cell growth and a specific SEAP color substrate. The hydrolysis of the substrate by SEAP produces a purple/blue color that can be measured with a spectrophotometer.
When growing to 50-80% confluency, HEK-Blue hTLR7/8 cells were plated into 96-well plate (costar 3599) at a density of 40000 cells/well. Then compounds were added with serial dilutions over 10 points with a 1 nM-10 uM final concentration range in 0.1% DMSO/HEK-Blue Detection. The plates were then incubated for 16 hr at 37° C. in 5% CO2. The optical density at 620-655 nm was read on BMG PHERAstar FSX instrument. The EC50 for each compound was determined by calculating the percentages of the maximum activation identified with Resiquimod or Motolimod.

Experiment [2] deals with T1, human TLR7. Description: HEK293-Blue hTLR7 reporter assay (QUANTI-BLUE, SEAP readout). As to conditions: HEK-Blue-hTLR7 cells, QUANTI-BLUE assay (A1-A76), 24 hrs. The arrangement: host or cells: HEK293 (HEK-Blue-hTLR7). In short, it runs like this: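 Cells seeded at 4×10^4 per well in DMEM/10% heat-inactivated FBS, settled 5 h, then exposed to increasing compound amounts for 24 h at 37° C. Secreted SEAP in supernatant read with Quanti-blue at 620-655 nm after 10-30 min at 37° C.; EC50 from sigmoidal dose-response fit.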

Each structure is given as a SMILES string.

Take `CCCC(CCO)Oc1nc(N)c2ncc(Cc3ccc(OCCNC)nc3)n2n1` (single isomer, unassigned) [Compound A81, (R or S) 3-((4-amino-7-((6-(2-(methylamino)ethoxy)pyridin-3-yl)methyl)imidazo[2,1-f][1,2,4]triazin-2-yl)oxy)hexan-1-ol]: the values for the EC50 on human TLR7 [1] and at human TLR 8 protein were 310 nM and 6250 nM, respectively.

For the molecule `CCCC(CCO)Oc1nc(N)c2ncc(Cc3ccc(OCCNC)nc3)n2n1` (single isomer, unassigned) [Compound A82, (S or R) 3-((4-amino-7-((6-(2-(methylamino)ethoxy)pyridin-3-yl)methyl)imidazo[2,1-f][1,2,4]triazin-2-yl)oxy)hexan-1-ol], the concentration for a half-maximal effect (EC50) at human TLR7 [1] is 5 nM; on human TLR 8 protein, 22 nM.

`CCCC(CCO)Oc1nc(N)c2ncc(Cc3ccc(OCCNC)cc3)n2n1` (single isomer, unassigned) [Compound A92, (R or S) 3-((4-amino-7-(4-(2-(methylamino)ethoxy)benzyl)imidazo[2,1-f][1,2,4]triazin-2-yl)oxy)hexan-1-ol]: the EC50 came out at 122 nM at human TLR7 [1] and 872 nM at human TLR 8 protein.

On to `CCCC(CCO)Oc1nc(N)c2ncc(Cc3ccc(OCCNC)cc3)n2n1` (single isomer, unassigned) [Compound A93, (S or R) 3-((4-amino-7-(4-(2-(methylamino)ethoxy)benzyl)imidazo[2,1-f][1,2,4]triazin-2-yl)oxy)hexan-1-ol], for which the concentration giving a half-maximal response (EC50) on human TLR7 [1] amounted to 1.7 nM; at human TLR 8 protein, 13.5 nM.

For the molecule `CCCC(CCO)Oc1nc(N)c2ncc(Cc3ccc(OCCNC)cc3OC)n2n1` (single isomer, unassigned) [Compound A101, (R or S)-3-((4-amino-7-(2-methoxy-4-(2-(methylamino)ethoxy)benzyl)imidazo[2,1-f][1,2,4]triazin-2-yl)oxy)hexan-1-ol], the EC50 on human TLR7 [1] is 0.78 nM; at human TLR 8 protein, 8.6 nM.

`CCCC(CCO)Oc1nc(N)c2ncc(Cc3ccc(OCCNC)c(C)c3)n2n1` (single isomer, unassigned) [Compound A103, (R or S)-3-((4-amino-7-(3-methyl-4-(2-(methylamino)ethoxy)benzyl)imidazo[2,1-f][1,2,4]triazin-2-yl)oxy)hexan-1-ol]: the EC50 at human TLR7 [1] is 2.4 nM; on human TLR 8 protein, 47 nM.

For the molecule `CCCC(CCO)Oc1nc(N)c2ncc(Cc3cccc(OCCNC)c3)n2n1` (single isomer, unassigned) [Compound A104, (R or S)-3-((4-amino-7-(3-(2-(methylamino)ethoxy)benzyl)imidazo[2,1-f][1,2,4]triazin-2-yl)oxy)hexan-1-ol], the values for the concentration giving a half-maximal response (EC50) on human TLR7 [1] and at human TLR 8 protein were 10 nM and 24 nM, respectively.

On to `CCCC(CCO)Oc1nc(N)c2ncc(Cc3ccc(OCCNC)c(F)c3)n2n1` (single isomer, unassigned) [Compound A105, (R or S)-3-((4-amino-7-(3-fluoro-4-(2-(methylamino)ethoxy)benzyl)imidazo[2,1-f][1,2,4]triazin-2-yl)oxy)hexan-1-ol], for which the EC50 at human TLR7 [1] came to 61 nM; on human TLR 8 protein, 622 nM.

With `CCCCOc1nc(N)c2ncc(Cc3ccc4c(c3)CCN(C(C)C)C4)n2n1` [Compound A8, 2-butoxy-7-((2-isopropyl-1,2,3,4-tetrahydroisoquinolin-6-yl)methyl)imidazo[2,1-f][1,2,4]triazin-4-amine], the values for the EC50 at human TLR 8 protein and on human TLR7 [2] were 187 nM and 3030 nM, respectively.

For the molecule `CCCCOc1nc(N)c2ncc(Cc3ccc(CN4CCNCC4)cc3)n2n1` [Compound A10, 2-butoxy-7-(4-(piperazin-1-ylmethyl)benzyl)imidazo[2,1-f][1,2,4]triazin-4-amine], the EC50 at human TLR 8 protein came out at 572 nM; at human TLR7 [2], 1170 nM.

In the case of `CCCCOc1nc(N)c2ncc(Cc3ccc(CN4CCC(N)CC4)cc3)n2n1` [Compound A43, 7-(4-((4-aminopiperidin-1-yl)methyl)benzyl)-2-butoxyimidazo[2,1-f][1,2,4]triazin-4-amine], the EC50 on human TLR 8 protein came out at 255 nM; on human TLR7 [2], 822 nM.

Take `CCCCOc1nc(N)c2ncc(Cc3ccc(OCCNC)nc3)n2n1` [Compound A58, 2-butoxy-7-((6-(2-(methylamino)ethoxy)pyridin-3-yl)methyl)imidazo[2,1-f][1,2,4]triazin-4-amine]: the figures for the EC50 on human TLR 8 protein and at human TLR7 [2] were 183 nM and 246 nM, respectively.

In general, EC50 refers to the concentration needed to bring the measured effect to its halfway point. A low value points to greater potency.
